Source: patent publication US9162992B2, “Compounds and compositions for treatment of breathing control disorders or diseases” (GALLEON PHARMACEUTICALS, INC., priority 2010, dated 2015)
Converted amounts (≈) assume the structure as drawn. “And” between values parts separate entries of the source, which are not always exact repeats. Equal entries are not always repeated. Where two headings read alike, the source gives them in different places.

Key:
[1] = Solubility in solvents and IV solutions; type: physicochemical
Procedure: The solubility of (XXXXVI) and XXXV was evaluated in various solvents and IV solutions. Due to limits on the API supply at the time the study was conducted, most of the solvent systems were evaluated to a level of only 100 mg/mL even if the solution was not saturated at this level. Only in water was an attempt made to reach saturation solubility, regardless of how high that solubility might be. Solubility of the salt/free base in each solvent was evaluated in duplicate.
For solubility in water, drug was added with intermittent shaking to ensure that excess undissolved drug is present indicating saturation […]. The filtrates were diluted appropriately and analyzed for (XXXV) concentration by HPLC.

[2] = Solubility as a function of pH (100 mM citric acid, room temperature); type: physicochemical; details: for solubility / solubility thermodynamic: thermodynamic from solid; for solubility thermodynamic: 100 mM citric acid buffer, read-out: (XXXVI) concentration; for (XXXVI) concentration: not saturated
Procedure: A solution of (XXXVI) of concentration ˜[…] in 100 mM citric acid at pH 2.5 was prepared. About 150 μL aliquots of this solution were transferred into 6 separate glass HPLC vials. Each aliquot was titrated with 6N sodium hydroxide to different pH values in the range 3-5.5 (Table 12A). All the samples, including the solution at pH 2.5, were shaken overnight at room temperature using a gyratory shaker. After shaking, the samples were evaluated visually for the presence of precipitate and were then spin filtered through 0.45 μm syringe tip filters (4 mm diameter) at 3,000 rpm for 20 min. The final pH values of the filtrates were measured. The filtrates were then diluted appropriately and analyzed for (XXXV) concentration using the HPLC assay.
This equation is a simplified representation of solubility equilibrium for weak bases that assumes that total solubility is much larger than the solubility of the free base in the pH range of interest: log S=log S0+log(1+10^pKa-pH) Equation 1 where, ‘S’ is total solubility; ‘S0’ is the solubility of the free base.

CCCNc1nc(NCCC)nc(N(C)OC)n1 [XXXV, N-(4,6-Bis-n-propylamino-[1,3,5]triazin-2-yl)-N,O-dimethyl-hydroxylamine]
solubility ([1]; organic solvent or mixture, thermodynamic from solid, solubility): > 90 mg/mL
solubility ([1]; water, thermodynamic from solid, Solubility): ~0.21 mg/mL (≈ 0.826 mM)
solubility ([2]; aqueous buffer): 0.18 mg/mL (≈ 0.708 mM)
solubility ([2]; pH 3.16, aqueous buffer): 50 mg/mL (≈ 197 mM)
solubility ([2]; pH 3.46, aqueous buffer): 25 mg/mL (≈ 98.3 mM)
pH dependence of solubility ([2]; pH 3.5): solubility was high at pH 3.5 or lower
solubility ([2]; pH 3.86, aqueous buffer): 10 mg/mL (≈ 39.3 mM)

CCCNc1nc(NCCC)nc(N(C)OC)n1.O=S(=O)(O)O [XXXVI, N-(4,6-Bis-n-propylamino-[1,3,5]triazin-2-yl)-N,O-dimethyl-hydroxylamine hydrogen sulfate]
solubility ([1]; 0.9% NaCl, listed as (XXXV) hydrogen sulfate salt, hydrogen sulfate): >201.4 mg/mL
solubility ([1]; 30% PEG-400, listed as (XXXV) hydrogen sulfate salt, hydrogen sulfate): >197.0 mg/mL and >198.4 mg/mL
solubility ([1]; 30% Propylene Glycol, listed as (XXXV) hydrogen sulfate salt, hydrogen sulfate): >89.47 mg/mL
solubility ([1]; 70% PEG-400, listed as (XXXV) hydrogen sulfate salt, hydrogen sulfate): >85.28 mg/mL and >91.43 mg/mL
solubility ([1]; 70% Propylene Glycol, listed as (XXXV) hydrogen sulfate salt, hydrogen sulfate): >92.43 mg/mL
solubility ([1]; Acetonitrile, listed as (XXXV) hydrogen sulfate salt, hydrogen sulfate): 68.5 mg/mL and 67.1 mg/mL
solubility ([1]; Ethanol, listed as (XXXV) hydrogen sulfate salt, hydrogen sulfate): >212.2 mg/mL
solubility ([1]; Methanol, listed as (XXXV) hydrogen sulfate salt, hydrogen sulfate): >98.52 mg/mL
solubility ([1]; PEG-400 (100%), listed as (XXXV) hydrogen sulfate salt, hydrogen sulfate): 35.74 mg/mL
solubility ([1]; Propylene Glycol (100%), listed as (XXXV) hydrogen sulfate salt, hydrogen sulfate): >94.65 mg/mL
solubility ([1]; Water, listed as (XXXV) hydrogen sulfate salt, hydrogen sulfate): 414.5 mg/mL and 441.5 mg/mL
solubility ([1]; aqueous with cosolvent or surfactant or cyclodextrin, thermodynamic from solid, 30% PEG-400, read-out: Solubility): ~198 mg/mL
solubility ([1]; aqueous with cosolvent or surfactant or cyclodextrin, thermodynamic from solid, 30% Propylene Glycol, read-out: Solubility): > 93.2 mg/mL
solubility ([1]; aqueous with cosolvent or surfactant or cyclodextrin, thermodynamic from solid, 30% and 70% PEG-400, read-out: solubility): ≥ 90 mg/mL
solubility ([1]; aqueous with cosolvent or surfactant or cyclodextrin, thermodynamic from solid, 30%, 70% and 100% propylene glycol, read-out: solubility): ≥ 90 mg/mL
solubility ([1]; aqueous with cosolvent or surfactant or cyclodextrin, thermodynamic from solid, 70% PEG-400, read-out: Solubility): ≥ 90 mg/mL
solubility ([1]; aqueous with cosolvent or surfactant or cyclodextrin, thermodynamic from solid, 70% Propylene Glycol, read-out: Solubility): > 87.8 mg/mL
solubility ([1]; ethanol and methanol): freely soluble
solubility ([1]; organic solvent or mixture, thermodynamic from solid, Acetonitrile, read-out: Solubility): ~68 mg/mL
solubility ([1]; organic solvent or mixture, thermodynamic from solid, Ethanol, read-out: Solubility): > 211 mg/mL
solubility ([1]; organic solvent or mixture, thermodynamic from solid, Methanol, read-out: Solubility): > 109 mg/mL
solubility ([1]; organic solvent or mixture, thermodynamic from solid, PEG-400 (100%), read-out: Solubility): ~36 mg/mL
solubility ([1]; organic solvent or mixture, thermodynamic from solid, Propylene Glycol (100%), read-out: Solubility): > 92.1 mg/mL
solubility ([1]; saline or isotonic, thermodynamic from solid, 0.9% NaCl, read-out: Solubility): > 206 mg/mL
solubility ([1]; saline or isotonic, thermodynamic from solid, 5% Dextrose, read-out: Solubility): > 201 mg/mL
solubility ([1]; saline or isotonic, thermodynamic from solid, IV solutions (0.9% saline and 5% dextrose), read-out: solubility): ≥ 200 mg/mL
solubility ([1]; water, thermodynamic from solid, Water, read-out: Solubility): > 400 mg/mL
solubility ([1]; water, thermodynamic from solid, water, IV solutions (0.9% saline and 5% dextrose), ethanol, methanol, 30%, 70% and 100% propylene glycol, read-out: solubility): > 90 mg/mL
solubility thermodynamic ([2]; aqueous buffer, target pH 4.0, final pH 3.79): 20.8 mg/mL
solubility thermodynamic ([2]; aqueous buffer, target pH 4.5, final pH 4.37): 3.46 mg/mL
solubility thermodynamic ([2]; aqueous buffer, target pH 5.0, final pH 4.52): 2.73 mg/mL
solubility thermodynamic ([2]; aqueous buffer, target pH 5.5, final pH 5.02): 0.99 mg/mL
appearance afterwards Shaking ([2]; target pH 2.5): Clear solution
(XXXVI) concentration ([2]; target pH 2.5, final pH 2.42): 104.1
appearance afterwards Shaking ([2]; target pH 3.0): Clear solution
(XXXVI) concentration ([2]; target pH 3.0, final pH 3.00): 99.8
appearance afterwards Shaking ([2]; target pH 3.5): Clear solution
(XXXVI) concentration ([2]; target pH 3.5, final pH 3.51): 101.6
appearance afterwards Shaking ([2]; target pH 4.0): Precipitate
appearance afterwards Shaking ([2]; target pH 4.5): Precipitate
appearance afterwards Shaking ([2]; target pH 5.0): Precipitate
appearance afterwards Shaking ([2]; target pH 5.5): Precipitate
